Test results from patent publication US20030134842A1, “METHODS FOR THE TREATMENT OR PREVENTION OF INFLAMMATORY DISEASES CHARACTERIZED BY ABNORMAL CELL PROLIFERATION” (priority 1997, published 2003).
Where two headings read alike, the source gives them in different places.

Columns and labels:
Type in all cases: cell-based
[1] = system: NIH 3T3 mouse fibroblast cells; experiment: Mitogenic assay (mitogen-induced cell proliferation); conditions: Mus musculus, NIH3T3, NIH 3T3 mouse fibroblast cells, mitogen-induced cell proliferation
[2] = target: T1, Ca2+-activated potassium channel (Gardos channel) of erythrocytes (Homo sapiens, UniProt O15554); experiment: Gardos channel assay; conditions: for inhibition at 10 µM: 10 μM compound
T1 construct: endogenous in cells; host or cells: erythrocytes

[3] = system: HeLa; experiment: SRB antiproliferative assay HeLa; conditions: Homo sapiens; HeLa (Cervical), 5% FCS/5 day incubation; read-out: Test Compound IC50
Excerpt: (§1) The cells were passaged using Trypsin (Gibco).

[4] = system: CaSki; experiment: SRB antiproliferative assay CaSki; conditions: Homo sapiens, Ca-Ski; CaSki (Cervical), 5% FCS/5 day incubation; read-out: Test Compound IC50
Excerpt: as §1

[5] = system: MDA-MB-23; experiment: SRB antiproliferative assay MDA-MB-23
Excerpt: as §1

[6] = system: MCF7; experiment: SRB antiproliferative assay MCF7; conditions: Homo sapiens
Excerpt: as §1

[7] = system: A549; experiment: SRB antiproliferative assay A549; conditions: Homo sapiens
Excerpt: as §1

[8] = system: HTB174; experiment: SRB antiproliferative assay HTB174; conditions: HTB174 (Lung), 5% FCS/5 day incubation; read-out: Test Compound IC50
Excerpt: as §1

[9] = system: HEPG2; experiment: SRB antiproliferative assay HEPG2; conditions: Homo sapiens
Excerpt: as §1

[10] = system: DU-145; experiment: SRB antiproliferative assay DU-145; conditions: Homo sapiens; DU-145 (Prostate), 5% FCS/5 day incubation; read-out: Test Compound IC50
Excerpt: as §1

[11] = system: SK-MEL-28; experiment: SRB antiproliferative assay SK-MEL-28; conditions: Homo sapiens; SK-MEL-28 (Melanoma), 5% FCS/5 day incubation; read-out: Test Compound IC50
Excerpt: as §1

[12] = system: MMRU; experiment: SRB antiproliferative assay MMRU; conditions: Homo sapiens
Excerpt: as §1

[13] = system: HT29; experiment: SRB antiproliferative assay HT29; conditions: Homo sapiens
Excerpt: as §1

[14] = system: HCT-15; experiment: SRB antiproliferative assay HCT-15; conditions: Homo sapiens; HCT-15 (Colon), 5% FCS/5 day incubation; read-out: Test Compound IC50
Excerpt: as §1

[15] = system: ACHN; experiment: SRB antiproliferative assay ACHN; conditions: Homo sapiens; ACHN (Renal), 5% FCS/5 day incubation; read-out: Test Compound IC50
Excerpt: as §1

[16] = system: U118MG; experiment: SRB antiproliferative assay U118MG; conditions: Homo sapiens, U-118-MG
Excerpt: as §1

[17] = system: SK-OV-3; experiment: SRB antiproliferative assay SK-OV-3; conditions: Homo sapiens; SK-OV-3 (Ovary), 5% FCS/5 day incubation; read-out: Test Compound IC50
Excerpt: as §1

[18] = system: HUVEC; experiment: SRB assay normal cells HUVEC; conditions: HUVEC (Normal human), 5% FCS/5 day incubation; read-out: Test Compound IC50
Excerpt: as §1

[19] = system: GM; experiment: SRB assay normal cells GM; conditions: GM (Normal human), 5% FCS/5 day incubation; read-out: Test Compound IC50
Excerpt: as §1

[20] = system: 3T3; experiment: SRB assay normal cells 3T3; conditions: NIH3T3; 3T3 (Normal mouse), 5% FCS/5 day incubation; read-out: Test Compound IC50
Excerpt: as §1

[21] = system: L929; experiment: SRB assay normal cells L929; conditions: L929 (Normal mouse), 5% FCS/5 day incubation; read-out: Test Compound IC50
Excerpt: as §1

[22] = MDA-MB-23 (Breast), 5% FCS/5 day incubation, read-out: Test Compound IC50
[23] = MCF7 (Breast), 5% FCS/5 day incubation, read-out: Test Compound IC50
[24] = MCF7, 5% FCS/3 days, read-out: Test Compound IC50 Value in Cell Lines
[25] = A549, A549 (Lung), 5% FCS/5 day incubation, read-out: Test Compound IC50
[26] = A549, A549, 5% FCS/3 days, read-out: Test Compound IC50 Value in Cell Lines
[27] = HEPG2 (Hepatocel), 5% FCS/5 day incubation, read-out: Test Compound IC50
[28] = HEPG2, 5% FCS/3 days, read-out: Test Compound IC50 Value in Cell Lines
[29] = MMRU (Melanoma), 5% FCS/5 day incubation, read-out: Test Compound IC50
[30] = MMRU, 5% FCS/3 days, read-out: Test Compound IC50 Value in Cell Lines
[31] = HT-29, HT29 (Colon), 5% FCS/5 day incubation, read-out: Test Compound IC50
[32] = HT-29, HT29, 5% FCS/3 days, read-out: Test Compound IC50 Value in Cell Lines
[33] = U118MG (CNS), 5% FCS/5 day incubation, read-out: Test Compound IC50
[34] = U118MG, 5% FCS/3 days, read-out: Test Compound IC50 Value in Cell Lines

T1 sequence (O15554 whole entry): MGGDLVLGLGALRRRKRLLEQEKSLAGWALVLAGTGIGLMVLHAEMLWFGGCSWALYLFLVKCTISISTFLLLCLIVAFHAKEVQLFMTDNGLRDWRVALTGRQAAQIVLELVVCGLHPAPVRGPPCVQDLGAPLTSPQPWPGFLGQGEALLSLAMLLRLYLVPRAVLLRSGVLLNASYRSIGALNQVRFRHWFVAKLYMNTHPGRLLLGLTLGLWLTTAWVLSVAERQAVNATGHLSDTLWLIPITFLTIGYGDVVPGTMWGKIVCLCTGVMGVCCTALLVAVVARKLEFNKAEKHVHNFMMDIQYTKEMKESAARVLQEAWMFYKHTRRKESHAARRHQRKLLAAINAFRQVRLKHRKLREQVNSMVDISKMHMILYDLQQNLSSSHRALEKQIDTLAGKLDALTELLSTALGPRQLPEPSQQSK

| SMILES | IC50 [1] [nM] | IC50 [2] [µM] | inhibition at 10 µM [2] [%] | IC50 [3] [nM] | IC50 [4] [nM] | IC50 [5, 22] [nM] | IC50 [6, 23] [nM] | IC50 [7, 25] [nM] | IC50 [8] [nM] | IC50 [9, 27] [nM] | IC50 [10] [nM] | IC50 [11] [nM] | IC50 [12, 29] [nM] | IC50 [13, 31] [nM] | IC50 [14] [nM] | IC50 [15] [nM] | IC50 [16, 33] [nM] | IC50 [18] [nM] | IC50 [19] [nM] | IC50 [21] [nM] | other results |
| --- | --- | --- | --- | --- | --- | --- | --- | --- | --- | --- | --- | --- | --- | --- | --- | --- | --- | --- | --- | --- | --- |
| COc1cccc2c1C(c1ccccc1Cl)c1cc(Cl)ccc1N(C(=O)c1ccc([N+](=O)[O-])cc1)C2 (stereo not shown) [Compound 31] | 400 | > 10 | 12.3 | 200 | 500 | 400 | 700 | 600 | 200 | 400 | 900 | 300 | 200 | 200 | 300 | 800 | 400 | 800 | > 1000 | 900 | IC50 [6, 24]: < 1250 nM; IC50 [7, 26]: < 1250 nM; IC50 [9, 28]: < 1250 nM; IC50 [12, 30]: < 1250 nM; IC50 [13, 32]: < 1250 nM; IC50 [16, 34]: < 1250 nM; IC50 [17]: 600 nM; IC50 [20]: > 1000 nM |
| COc1ccc2c(c1)CN(C(=O)c1ccc([N+](=O)[O-])cc1)c1ccc(Cl)cc1C2c1ccccc1Cl (stereo not shown) [Compound 30] | 600 | > 10 | 14.6 | 500 | 700 | 900 | 1300 | 1500 | 500 | 900 | > 1000 | 600 | 500 | 600 | 500 | > 1000 | 800 | > 1000 | > 1000 | > 1000 | IC50 [6, 24]: 1600 nM; IC50 [7, 26]: 1700 nM; IC50 [9, 28]: < 1250 nM; IC50 [12, 30]: < 1250 nM; IC50 [13, 32]: < 1250 nM; IC50 [16, 34]: < 1250 nM; IC50 [17]: > 1000 nM; IC50 [20]: > 1000 nM |
| CNc1ccc(C(=O)N2Cc3ccccc3C(c3ccccc3Cl)c3ccccc32)cc1 (stereo not shown) [Compound 33] | 2400 | > 10 | 67.5 | – | – | – | 2100 | 3100 | 1400 | 1400 | – | – | 1300 | 1200 | – | – | – | – | – | – | IC50 [6, 24]: 5400 nM; IC50 [7, 26]: 6900 nM; IC50 [9, 28]: 6200 nM; IC50 [12, 30]: 4900 nM; IC50 [13, 32]: 6300 nM; IC50 [16, 34]: 6800 nM |
| COc1cc([C@@H]2c3cc4c(cc3[C@@H](O[C@@H]3O[C@@H]5CO[C@@H](C)O[C@H]5[C@H](O)[C@H]3O)[C@H]3COC(=O)[C@H]23)OCO4)cc(OC)c1O [VP-16, Etoposide, reference compound] | – | – | – | < 1250 | 1800 | – | < 1250 | – | < 1250 | < 1250 | < 1250 | < 1250 | < 1250 | < 1250 | 1300 | < 1250 | 2200 | < 1250 | 1400 | < 1250 | IC50 ([5]; MDA-MB-23, read-out: Test Compound IC50): < 1250 nM; IC50 ([6]; MCF7, 2% FCS/3 days, read-out: Test Compound IC50 Value in Cell Lines): < 2500 nM; IC50 ([7]; A549 (Lung), 5% FCS/5 day incubation, read-out: Test Compound IC50): < 1250 nM; IC50 ([7]; A549, 2% FCS/3 days, read-out: Test Compound IC50 Value in Cell Lines): 2300 nM; IC50 ([12]; MMRU, 2% FCS/3 days, read-out: Test Compound IC50 Value in Cell Lines): < 2500 nM; IC50 ([13]; HT-29, HT29, 2% FCS/3 days, read-out: Test Compound IC50 Value in Cell Lines): 20000 nM |
| COc1ccc(C(=O)N2Cc3ccccc3C(c3ccccc3Cl)c3ccccc32)cc1 (stereo not shown) [Compound 27] | 2200 | > 10 | 3 | 200 | 900 | > 1000 | 500 | 1100 | 300 | 400 | > 1000 | 700 | 200 | 400 | 400 | > 1000 | 400 | > 1000 | > 1000 | > 1000 | IC50 [6, 24]: < 1250 nM; IC50 [7, 26]: < 1250 nM; IC50 [9, 28]: < 1250 nM; IC50 [12, 30]: < 1250 nM; IC50 [13, 32]: < 1250 nM; IC50 [16, 34]: 1900 nM; IC50 [17]: > 1000 nM; IC50 [20]: > 1000 nM |
| O=C(c1ccc([N+](=O)[O-])cc1)N1Cc2ccccc2C(c2ccccc2)c2ccccc21 (stereo not shown) [Compound 20] | 1700 | > 10 | 13.6 | 600 | 900 | > 1000 | > 1000 | > 1000 | 700 | 900 | > 1000 | 900 | 500 | 700 | 900 | > 1000 | 900 | > 1000 | > 1000 | 900 | IC50 [17]: > 1000 nM; IC50 [20]: > 1000 nM |
